Source: PubChem BioAssay (NCI)
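1) Cells in 96-well plates. 2) Compound, 48 h, 5 concentrations. 3) Linear interpolation between surrounding doses. 4) Unreached endpoint = highest concentration. GI50 marks 50% less growth. TGI denotes the concentration required for complete inhibition of growth.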

Assays:
Assay in all cases: inhibition of tumour cell growth, NCI panel, 48 h
786-0 renal = tested on: 786-0 renal
A498 renal = tested on: A498 renal
A549 NSCLC = tested on: A549 NSCLC
ACHN renal = tested on: ACHN renal
BT-549 breast = tested on: BT-549 breast
CAKI-1 renal = tested on: CAKI-1 renal
CCRF-CEM leukemia = tested on: CCRF-CEM leukemia
COLO 205 colon = tested on: COLO 205 colon
DU-145 prostate = tested on: DU-145 prostate
EKVX NSCLC = tested on: EKVX NSCLC
HCC-2998 colon = tested on: HCC-2998 colon
HCT-116 colon = tested on: HCT-116 colon
HCT-15 colon = tested on: HCT-15 colon
HL-60(TB) leukemia = tested on: HL-60(TB) leukemia
HOP-62 NSCLC = tested on: HOP-62 NSCLC
HOP-92 NSCLC = tested on: HOP-92 NSCLC
HS 578T breast = tested on: HS 578T breast
HT29 colon = tested on: HT29 colon
IGROV1 ovarian = tested on: IGROV1 ovarian
K-562 leukemia = tested on: K-562 leukemia
KM12 colon = tested on: KM12 colon
LOX IMVI melanoma = tested on: LOX IMVI melanoma
M14 melanoma = tested on: M14 melanoma
MALME-3M melanoma = tested on: MALME-3M melanoma
MCF7 breast = tested on: MCF7 breast
MDA-MB-231 breast = tested on: MDA-MB-231 breast
MDA-MB-435 = tested on: MDA-MB-435
MOLT-4 leukemia = tested on: MOLT-4 leukemia
NCI-H226 lung = tested on: NCI-H226 lung
NCI-H23 lung = tested on: NCI-H23 lung
NCI-H460 lung = tested on: NCI-H460 lung
NCI-H522 lung = tested on: NCI-H522 lung
NCI/ADR-RES ovarian = tested on: NCI/ADR-RES ovarian
OVCAR-3 ovarian = tested on: OVCAR-3 ovarian
OVCAR-4 ovarian = tested on: OVCAR-4 ovarian
OVCAR-5 ovarian = tested on: OVCAR-5 ovarian
OVCAR-8 ovarian = tested on: OVCAR-8 ovarian
PC-3 prostate = tested on: PC-3 prostate
RPMI-8226 leukemia = tested on: RPMI-8226 leukemia
RXF 393 renal = tested on: RXF 393 renal
SF-268 CNS = tested on: SF-268 CNS
SF-295 CNS = tested on: SF-295 CNS
SF-539 CNS = tested on: SF-539 CNS
SK-MEL-2 melanoma = tested on: SK-MEL-2 melanoma
SK-MEL-28 melanoma = tested on: SK-MEL-28 melanoma
SK-MEL-5 melanoma = tested on: SK-MEL-5 melanoma
SK-OV-3 ovarian = tested on: SK-OV-3 ovarian
SN12C renal = tested on: SN12C renal
SNB-19 CNS = tested on: SNB-19 CNS
SNB-75 CNS = tested on: SNB-75 CNS
SR leukemia = tested on: SR leukemia
SW-620 colon = tested on: SW-620 colon
T-47D breast = tested on: T-47D breast
TK-10 renal = tested on: TK-10 renal
U251 CNS = tested on: U251 CNS
UACC-257 melanoma = tested on: UACC-257 melanoma
UACC-62 melanoma = tested on: UACC-62 melanoma
UO-31 renal = tested on: UO-31 renal
MDA-N = tested on: MDA-N

## COc1ccc2c(Nc3ccc(NS(C)(=O)=O)cc3)c3ccccc3nc2c1
786-0 renal
  GI50: 544 nM
  TGI: 4240 nM
A498 renal
  GI50: 375 nM
  TGI: 2050 nM
A549 NSCLC
  GI50: 151 nM
  TGI: 2700 nM
ACHN renal
  GI50: 217 nM
  TGI: 1580 nM
BT-549 breast
  GI50: 1500 nM
  TGI: 3670 nM
CAKI-1 renal
  GI50: 450 nM
  TGI: 5640 nM
CCRF-CEM leukemia
  GI50: 320 nM
  TGI: 6030 nM
COLO 205 colon
  GI50: 384 nM
  TGI: 1580 nM
DU-145 prostate
  GI50: 315 nM
  TGI: 6460 nM
EKVX NSCLC
  GI50: 1430 nM
  TGI: 8200 nM
HCC-2998 colon
  GI50: 732 nM
  TGI: 2300 nM
HCT-116 colon
  GI50: 262 nM
  TGI: 3960 nM
HCT-15 colon
  GI50: 1410 nM
  TGI: 11400 nM
HL-60(TB) leukemia
  GI50: 427 nM
  TGI: 4450 nM
HOP-62 NSCLC
  GI50: 429 nM
  TGI: 2720 nM
HOP-92 NSCLC
  GI50: 136 nM
  TGI: 2660 nM
HS 578T breast
  GI50: 292 nM
  TGI: 2640 nM
HT29 colon
  GI50: 326 nM
  TGI: 1580 nM
IGROV1 ovarian
  GI50: 418 nM
  TGI: 16700 nM
K-562 leukemia
  GI50: 674 nM
  TGI: > 100000 nM
KM12 colon
  GI50: 533 nM
  TGI: 9190 nM
LOX IMVI melanoma
  GI50: 285 nM
  TGI: 2340 nM
M14 melanoma
  GI50: 599 nM
  TGI: 2030 nM
MALME-3M melanoma
  GI50: 652 nM
  TGI: 2380 nM
MCF7 breast
  GI50: 300 nM
  TGI: 1990 nM
MDA-MB-231 breast
  GI50: 1520 nM
  TGI: 6650 nM
MDA-MB-435
  GI50: 817 nM
  TGI: 2400 nM
MOLT-4 leukemia
  GI50: 111 nM
  TGI: 22500 nM
NCI-H226 lung
  GI50: 229 nM
  TGI: 1590 nM
NCI-H23 lung
  GI50: 475 nM
  TGI: 2490 nM
NCI-H460 lung
  GI50: 61.8 nM
  TGI: 1110 nM
NCI-H522 lung
  GI50: 304 nM
  TGI: 1840 nM
NCI/ADR-RES ovarian
  GI50: 3630 nM
  TGI: 28600 nM
OVCAR-3 ovarian
  GI50: 990 nM
  TGI: 3090 nM
OVCAR-4 ovarian
  GI50: 1230 nM
  TGI: 4130 nM
OVCAR-5 ovarian
  GI50: 1020 nM
  TGI: 4910 nM
OVCAR-8 ovarian
  GI50: 432 nM
  TGI: 5260 nM
PC-3 prostate
  GI50: 735 nM
  TGI: 10100 nM
RPMI-8226 leukemia
  GI50: 431 nM
  TGI: 4090 nM
RXF 393 renal
  GI50: 871 nM
  TGI: 2400 nM
SF-268 CNS
  GI50: 469 nM
  TGI: 4030 nM
SF-295 CNS
  GI50: 381 nM
  TGI: 2530 nM
SF-539 CNS
  GI50: 525 nM
  TGI: 2280 nM
SK-MEL-2 melanoma
  GI50: 334 nM
  TGI: 2290 nM
SK-MEL-28 melanoma
  GI50: 1380 nM
  TGI: 3450 nM
SK-MEL-5 melanoma
  GI50: 526 nM
  TGI: 1890 nM
SK-OV-3 ovarian
  GI50: 364 nM
  TGI: 5260 nM
SN12C renal
  GI50: 487 nM
  TGI: 13200 nM
SNB-19 CNS
  GI50: 445 nM
  TGI: 11400 nM
SNB-75 CNS
  GI50: 718 nM
  TGI: 2120 nM
SR leukemia
  GI50: 112 nM
  TGI: 6460 nM
SW-620 colon
  GI50: 276 nM
  TGI: 3290 nM
T-47D breast
  GI50: 340 nM
  TGI: 3140 nM
TK-10 renal
  GI50: 596 nM
  TGI: 4960 nM
U251 CNS
  GI50: 475 nM
  TGI: 9020 nM
UACC-257 melanoma
  GI50: 628 nM
  TGI: 2170 nM
UACC-62 melanoma
  GI50: 383 nM
  TGI: 1930 nM
UO-31 renal
  GI50: 809 nM
  TGI: 8870 nM

## COc1cc2cc(C(=O)N3C[C@@H](CCl)c4c3cc(N)c3ccccc43)[nH]c2c(OC)c1OC
A549 NSCLC
  TGI: > 100000 nM
CAKI-1 renal
  TGI: 36.4 nM
CCRF-CEM leukemia
  TGI: > 100000 nM
HCT-116 colon
  TGI: 136 nM
HCT-15 colon
  TGI: 1110 nM
HL-60(TB) leukemia
  TGI: > 100000 nM
HOP-92 NSCLC
  TGI: > 100000 nM
HS 578T breast
  TGI: > 100000 nM
HT29 colon
  TGI: 1100 nM
IGROV1 ovarian
  TGI: 467 nM
K-562 leukemia
  TGI: > 100000 nM
KM12 colon
  TGI: 25.7 nM
MCF7 breast
  TGI: 22000 nM
MDA-N
  TGI: 1.53 nM
MOLT-4 leukemia
  TGI: 1640 nM
PC-3 prostate
  TGI: 108 nM
RPMI-8226 leukemia
  TGI: > 100000 nM
SF-268 CNS
  TGI: > 100000 nM
SF-295 CNS
  TGI: > 100000 nM
SK-MEL-28 melanoma
  TGI: > 100000 nM
SK-OV-3 ovarian
  TGI: 1450 nM
SR leukemia
  TGI: > 100000 nM
SW-620 colon
  TGI: > 100000 nM
U251 CNS
  TGI: > 100000 nM
